Test results from patent publication US8022206B2 (OSI Pharmaceuticals, LLC, priority 2008, dated 2011).

How the values were obtained:
[1] = biological target: MET (human) (Homo sapiens, UniProt P08581); assay: MET (human) AlphaScreen kinase assay, Km of ATP; assay type: biochemical; conditions: AlphaScreen, Km of ATP; read-out: Met biochemical IC50
Summary of the method: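 Human MET at lot-optimised concentration in 50 mM Tris pH 7.4 buffer with 1 mM DTT, compound at 1% DMSO final; enzyme starts the reaction, 60 min at RT.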

[2] = biological target: RON (human) (Homo sapiens, UniProt Q04912); assay: RON (human) AlphaScreen kinase assay, Km of ATP; assay type: biochemical; conditions: AlphaScreen, Km of ATP; read-out: RON biochemical IC50
Summary of the method: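 Detection used PT66 AlphaScreen beads added in Tris pH 7.5/NaCl/EDTA/BSA buffer, read after 1 h incubation. Vehicle-only DMSO wells served as controls.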

Sequence of MET (human) (P08581 25-1390): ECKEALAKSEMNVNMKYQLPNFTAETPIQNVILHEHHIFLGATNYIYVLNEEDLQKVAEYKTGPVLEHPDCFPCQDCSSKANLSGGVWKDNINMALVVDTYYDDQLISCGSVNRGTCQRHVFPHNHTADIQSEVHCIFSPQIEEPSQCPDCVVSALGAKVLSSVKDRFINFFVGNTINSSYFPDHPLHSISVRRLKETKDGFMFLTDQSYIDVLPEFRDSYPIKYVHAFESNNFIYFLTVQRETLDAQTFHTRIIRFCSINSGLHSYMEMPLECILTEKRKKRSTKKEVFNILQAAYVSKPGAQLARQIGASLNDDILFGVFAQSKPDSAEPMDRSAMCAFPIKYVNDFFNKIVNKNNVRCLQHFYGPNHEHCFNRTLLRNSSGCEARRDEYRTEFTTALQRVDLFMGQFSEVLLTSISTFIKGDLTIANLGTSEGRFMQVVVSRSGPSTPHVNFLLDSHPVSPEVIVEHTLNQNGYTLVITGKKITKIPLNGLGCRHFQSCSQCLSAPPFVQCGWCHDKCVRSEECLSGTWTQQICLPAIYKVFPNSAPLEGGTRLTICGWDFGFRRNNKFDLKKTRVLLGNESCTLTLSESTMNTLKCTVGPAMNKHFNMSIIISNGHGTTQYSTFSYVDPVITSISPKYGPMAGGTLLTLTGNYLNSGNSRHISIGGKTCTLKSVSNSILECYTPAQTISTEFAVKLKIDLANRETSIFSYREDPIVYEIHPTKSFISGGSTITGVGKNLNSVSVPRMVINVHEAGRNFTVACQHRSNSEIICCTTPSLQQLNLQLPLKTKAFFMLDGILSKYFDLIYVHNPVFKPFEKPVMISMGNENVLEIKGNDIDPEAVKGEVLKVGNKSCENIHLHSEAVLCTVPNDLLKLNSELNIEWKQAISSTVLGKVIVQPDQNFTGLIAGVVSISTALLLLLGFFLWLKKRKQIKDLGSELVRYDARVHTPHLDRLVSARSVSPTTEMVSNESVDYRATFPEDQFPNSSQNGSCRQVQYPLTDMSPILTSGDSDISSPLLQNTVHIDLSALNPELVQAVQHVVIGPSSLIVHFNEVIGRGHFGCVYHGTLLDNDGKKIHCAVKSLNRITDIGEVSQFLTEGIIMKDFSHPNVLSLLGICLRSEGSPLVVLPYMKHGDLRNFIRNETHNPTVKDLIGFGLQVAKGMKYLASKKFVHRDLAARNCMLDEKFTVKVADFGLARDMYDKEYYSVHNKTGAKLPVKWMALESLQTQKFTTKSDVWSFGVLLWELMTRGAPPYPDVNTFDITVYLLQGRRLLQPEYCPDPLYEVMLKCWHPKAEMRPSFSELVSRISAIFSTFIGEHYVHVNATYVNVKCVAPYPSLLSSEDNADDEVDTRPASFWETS
Sequence of RON (human) (Q04912 25-1400): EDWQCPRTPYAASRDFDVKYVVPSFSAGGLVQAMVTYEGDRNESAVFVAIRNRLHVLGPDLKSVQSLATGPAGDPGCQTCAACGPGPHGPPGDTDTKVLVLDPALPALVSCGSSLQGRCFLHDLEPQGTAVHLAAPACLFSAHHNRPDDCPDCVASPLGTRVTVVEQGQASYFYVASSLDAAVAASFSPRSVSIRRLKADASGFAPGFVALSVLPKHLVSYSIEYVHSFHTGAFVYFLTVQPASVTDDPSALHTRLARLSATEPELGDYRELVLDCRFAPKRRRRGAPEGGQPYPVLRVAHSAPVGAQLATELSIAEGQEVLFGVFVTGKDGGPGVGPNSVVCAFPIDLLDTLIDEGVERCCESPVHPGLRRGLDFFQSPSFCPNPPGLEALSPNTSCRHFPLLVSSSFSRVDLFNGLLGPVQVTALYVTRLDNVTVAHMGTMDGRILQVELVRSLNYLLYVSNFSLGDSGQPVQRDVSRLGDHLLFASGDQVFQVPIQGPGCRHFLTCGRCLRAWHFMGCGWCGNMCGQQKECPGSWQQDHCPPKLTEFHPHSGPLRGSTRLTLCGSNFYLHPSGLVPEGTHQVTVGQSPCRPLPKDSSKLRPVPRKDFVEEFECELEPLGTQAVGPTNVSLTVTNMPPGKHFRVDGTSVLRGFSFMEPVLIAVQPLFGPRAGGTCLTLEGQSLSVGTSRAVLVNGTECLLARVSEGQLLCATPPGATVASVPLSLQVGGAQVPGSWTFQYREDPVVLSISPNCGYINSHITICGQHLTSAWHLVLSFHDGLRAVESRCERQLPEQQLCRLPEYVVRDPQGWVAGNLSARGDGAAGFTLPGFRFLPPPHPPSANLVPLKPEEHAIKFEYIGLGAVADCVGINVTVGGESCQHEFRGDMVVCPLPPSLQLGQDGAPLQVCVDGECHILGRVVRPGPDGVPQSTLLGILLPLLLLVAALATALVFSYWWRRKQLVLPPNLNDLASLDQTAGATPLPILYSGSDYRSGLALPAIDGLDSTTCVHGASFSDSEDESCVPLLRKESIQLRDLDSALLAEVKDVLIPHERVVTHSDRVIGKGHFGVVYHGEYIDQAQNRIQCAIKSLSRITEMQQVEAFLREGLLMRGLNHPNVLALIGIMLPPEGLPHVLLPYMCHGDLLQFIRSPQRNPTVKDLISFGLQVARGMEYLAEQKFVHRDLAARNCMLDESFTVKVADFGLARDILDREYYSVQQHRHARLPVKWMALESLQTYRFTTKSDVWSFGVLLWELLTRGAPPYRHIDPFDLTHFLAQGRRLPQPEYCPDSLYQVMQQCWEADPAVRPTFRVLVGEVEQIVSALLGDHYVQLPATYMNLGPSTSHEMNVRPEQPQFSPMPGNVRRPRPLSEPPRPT

| IC50 [1] [nM] | IC50 [2] [nM] | SMILES |
| --- | --- | --- |
| < 500 | < 500 | C[C@@H](Oc1c(N)ncc2c(-c3cccc(C(=O)NCCN(C)C)c3)coc12)c1c(Cl)ccc(F)c1Cl [Example 74, 3-{6-Amino-7-[(R)-1-(2,6-dichloro-3-fluorophenyl)ethoxy]-furo[3,2-c]pyridin-3-yl}-N-(2-dimethylaminoethyl)benzamide] |
| < 500 | 500 to 5000 | CC(/C=C/c1c(Cl)ccc(F)c1Cl)Oc1c(N)ncc2c(-c3cnn(C4CCNCC4)c3)coc12 (centres unmarked) [Example 373, 7-[(E)-3-(2,6-Dichloro-3-fluorophenyl)-1-methylallyloxy]-3-(1-piperidin-4-yl-1H-pyrazol-4-yl)furo[3,2-c]pyridin-6-ylamine] |
| < 500 | 500 to 5000 | C[C@@H](Oc1c(N)ncc2c(-c3ccn4ccnc4c3)coc12)c1c(Cl)ccc(F)c1Cl [Example 82, 7-[(R)-1-(2,6-Dichloro-3-fluorophenyl)ethoxy]-3-imidazo[1,2-a]pyridin-7-ylfuro[3,2-c]pyridin-6-ylamine] |
| < 500 | 500 to 5000 | C[C@@H](Oc1c(N)ncc2c(-c3ccc(N)nc3)coc12)c1c(Cl)ccc(F)c1Cl [Example 131, 3-(6-Amino-pyridin-3-yl)-7-[(R)-(2,6-dichloro-3-fluorophenyl)ethoxy]furo[3,2-c]pyridin-6-ylamine] |
| < 500 | 500 to 5000 | C[C@@H](Oc1c(N)ncc2c(C3=CCN(C(=O)[C@H](N)Cc4ccccc4)CC3)coc12)c1c(Cl)ccc(F)c1Cl [Example 257, (2R)-2-Amino-1-[4-{6-amino-7-[(1R)-1-(2,6-dichloro-3-fluoro-phenyl)ethoxy]furo[3,2-c]pyridin-3-yl}-3,6-dihydropyridin-1(2H)-yl]-3-phenylpropan-1-one] |
| < 500 | < 500 | Nc1ncc2c(-c3cnn(C4CCNCC4)c3)coc2c1OC(c1c(F)ccc(F)c1Cl)C1CC1 (centres unmarked) [Example 367, 7-[(2-Chloro-3,6-difluorophenyl)cyclopropylmethoxy]-3-(1-piperidin-4-yl-1H-pyrazol-4-yl)furo[3,2-c]pyridin-6-ylamine] |
| < 500 | 500 to 5000 | CC(Cc1ccc(F)cc1)Oc1c(N)ncc2c(-c3cnn(C4CCNCC4)c3)coc12 (centres unmarked) [Example 425, 7-[2-(4-Fluorophenyl)-1-methylethoxy]-3-(1-piperidin-4-yl-1H-pyrazol-4-yl)furo[3,2-c]pyridin-6-ylamine] |
| < 500 | < 500 | CC(Oc1c(N)ncc2c(-c3cnn(C4CCNCC4)c3)coc12)c1c(Cl)cc(Br)cc1Cl (centres unmarked) [Example 442, 7-[1-(4-Bromo-2,6-dichlorophenyl)ethoxy]-3-(1-piperidin-4-yl-1H-pyrazol-4-yl)furo[3,2-c]pyridin-6-ylamine] |
| 500 to 5000 | 500 to 5000 | Nc1ncc2c(-c3cnn(C4CCNCC4)c3)coc2c1OC(CCc1ccccc1)c1c(Cl)ccc(F)c1Cl (centres unmarked) [Example 368, 7-[1-(2,6-Dichloro-3-fluorophenyl)-3-phenylpropoxy]-3-(1-piperidin-4-yl-1H-pyrazol-4-yl)furo[3,2-c]pyridin-6-ylamine] |
| 500 to 5000 | 500 to 5000 | C[C@@H](Oc1c(N)ncc2c(-c3cnn(C4CCNCC4)c3)coc12)c1ccncc1 [Example 397, 3-(1-Piperidin-4-yl-1H-pyrazol-4-yl)-7-((R)-1-pyridin-4-yl-ethoxy)furo[3,2-c]pyridin-6-ylamine] |
| 500 to 5000 | 500 to 5000 | C[C@@H](Oc1c(N)ncc2c(-c3cnn(C4CCN(S(C)(=O)=O)CC4)c3)coc12)c1c(Cl)ccc(F)c1Cl [Example 275, 7-[(1R)-1-(2,6-Dichloro-3-fluorophenyl)ethoxy]-3-{1-[1-(methyl-sulfonyl)piperidin-4-yl]-1H-pyrazol-4-yl}furo[3,2-c]pyridin-6-amine] |
| 500 to 5000 | 500 to 5000 | C[C@@H](Oc1c(N)ncc2c(-c3ccc(C(N)=O)s3)coc12)c1c(Cl)ccc(F)c1Cl [Example 209, 5-{6-Amino-7-[(R)-1-(2,6-dichloro-3-fluorophenyl)ethoxy]-furo[3,2-c]pyridin-3-yl}-thiophene-2-carboxamide] |
| 500 to 5000 | > 20000 | Nc1ncc2ccoc2c1OCc1ccc(NC(=O)c2cccn(-c3ccc(F)cc3)c2=O)cc1 [Example 461, 1-(4-Fluorophenyl)-2-oxo-1,2-dihydropyridine-3-carboxylic acid [4-(6-aminofuro[3,2-c]pyridin-7-yloxymethyl)phenyl]amide] |
| < 500 | < 500 | CC(O)C(=O)N1CC=C(c2coc3c(O[C@H](C)c4c(Cl)ccc(F)c4Cl)c(N)ncc23)CC1 (stereo partly drawn) [Example 229, 1-(4-{6-Amino-7-[(R)-1-(2,6-dichloro-3-fluorophenyl)ethoxy]-furo[3,2-c]pyridin-3-yl}-3,6-dihydro-2H-pyridin-1-yl)-2-hydroxypropan-1-one] |
| 500 to 5000 | 5000 to 20000 | C[C@@H](Oc1c(N)ncc2c(C(=O)NC3CCN(C(=O)OC(C)(C)C)CC3)coc12)c1c(Cl)ccc(F)c1Cl [Example 181, 4-({6-Amino-7-[(R)-1-(2,6-dichloro-3-fluorophenyl)ethoxy]furo[3,2-c]pyridine-3-carbonyl}-amino)-piperidine-1-carboxylic acid tert-butyl ester] |
| 500 to 5000 | 500 to 5000 | CC(C)C(=O)N1CC=C(c2coc3c(O[C@H](C)c4c(Cl)ccc(F)c4Cl)c(N)ncc23)CC1 [Example 15, 1-(4-{6-Amino-7-[(R)-1-(2,6-dichloro-3-fluorophenyl)-ethoxy]-furo[3,2-c]pyridin-3-yl}-3,6-dihydro-2H-pyridin-1-yl)-2-methylpropan-1-one] |
| < 500 | 500 to 5000 | CC(Oc1c(N)ncc2c(-c3cnn(C4CCNCC4)c3)coc12)c1cc(F)cc(-c2cnn(C)c2)c1 (centres unmarked) [Example 452, 7-{1-[3-Fluoro-5-(1-methyl-1H-pyrazol-4-yl)phenyl]ethoxy}-3-(1-piperidin-4-yl-1H-pyrazol-4-yl)furo[3,2-c]pyridin-6-ylamine] |
| < 500 | < 500 | C[C@@H](Oc1c(N)ncc2c(C3=CCN(C(=O)CN4CCCC4)CC3)coc12)c1c(Cl)ccc(F)c1Cl [Example 13, 1-(4-{6-Amino-7-[(R)-1-(2,6-dichloro-3-fluorophenyl)-ethoxy]-furo[3,2-c]pyridin-3-yl}-3,6-dihydro-2H-pyridin-1-yl)-2-pyrrolidin-1-ylethanone] |
| 500 to 5000 | 500 to 5000 | CC(Oc1c(N)ncc2c(-c3cnn(C4CCNCC4)c3)coc12)c1ccc2ccccc2c1 (centres unmarked) [Example 432, 7-(1-Naphthalen-2-ylethoxy)-3-(1-piperidin-4-yl-1H-pyrazol-4-yl)furo[3,2-c]pyridin-6-ylamine] |
| 500 to 5000 | 5000 to 20000 | C[C@@H](Oc1c(N)ncc2c(C(=O)O)coc12)c1c(Cl)ccc(F)c1Cl [Example 176, 6-Amino-7-[(R)-1-(2,6-dichloro-3-fluorophenyl)ethoxy]furo[3,2-c]pyridine-3-carboxylic acid] |
| 500 to 5000 | 500 to 5000 | C[C@@H](Oc1c(N)ncc2c(-c3cc(C(=O)N(C)C)cs3)coc12)c1c(Cl)ccc(F)c1Cl [Example 328, 5-{6-Amino-7-[(R)-1-(2,6-dichloro-3-fluorophenyl)ethoxy]furo[3,2-c]pyridin-3-yl}thiophene-3-carboxylic acid Dimethylamide] |
| 500 to 5000 | 500 to 5000 | CC(Oc1c(N)ncc2c(-c3cnn(C4CCNCC4)c3)coc12)c1nc2ccccc2[nH]1 (centres unmarked) [Example 403, 7-[1-(1H-Benzimidazol-2-yl)ethoxy]-3-(1-piperidin-4-yl-1H-pyrazol-4-yl)furo[3,2-c]pyridin-6-ylamine] |
| 500 to 5000 | 500 to 5000 | Cc1csc(-c2coc3c(O[C@H](C)c4c(Cl)ccc(F)c4Cl)c(N)ncc23)c1 [Example 115, 7-[(R)-1-(2,6-Dichloro-3-fluorophenyl)ethoxy]-3-(4-methylthiophen-2-yl)furo[3,2-c]pyridin-6-ylamine] |
| 500 to 5000 | 500 to 5000 | Nc1ncc2c(-c3cnn(C4CCNCC4)c3)coc2c1OC1CCCc2cccc(Cl)c21 (centres unmarked) [Example 389, 7-(8-Chloro-1,2,3,4-tetrahydronaphthalen-1-yloxy)-3-(1-piperidin-4-yl-1H-pyrazol-4-yl)furo[3,2-c]pyridin-6-ylamine] |
| < 500 | 500 to 5000 | COc1cc(Cl)cc(Cl)c1C(C)Oc1c(N)ncc2c(-c3cnn(C4CCNCC4)c3)coc12 (centres unmarked) [Example 360, 7-[1-(2,4-Dichloro-6-methoxyphenyl)ethoxy]-3-(1-piperidin-4-yl-1H-pyrazol-4-yl)furo[3,2-c]pyridin-6-ylamine] |
| < 500 | < 500 | C[C@@H](N)C(=O)N1CC=C(c2coc3c(O[C@H](C)c4c(Cl)ccc(F)c4Cl)c(N)ncc23)CC1 [Example 252, (2R)-2-Amino-1-[4-{6-amino-7-[(1R)-1-(2,6-dichloro-3-fluoro-phenyl)ethoxy]furo[3,2-c]pyridin-3-yl}-3,6-dihydropyridin-1(2H)-yl]propan-1-one] |
| 500 to 5000 | 500 to 5000 | C[C@@H](Oc1c(N)ncc2c(-c3cccc(C(N)=O)c3)coc12)c1c(Cl)ccc(F)c1Cl [Example 70, 3-{6-Amino-7-[(R)-1-(2,6-dichloro-3-fluorophenyl)ethoxy]-furo[3,2-c]pyridin-3-yl}benzamide] |
| 500 to 5000 | 500 to 5000 | C[C@@H]1CN(C(=O)N2CC=C(c3coc4c(O[C@H](C)c5c(Cl)ccc(F)c5Cl)c(N)ncc34)CC2)C[C@H](C)O1 [Example 30, (4-{6-Amino-7-[(R)-1-(2,6-dichloro-3-fluorophenyl)-ethoxy]-furo[3,2-c]pyridin-3-yl}-3,6-dihydro-2H-pyridin-1-yl)-((2R,6S)-2,6-dimethylmorpholin-4-yl)-methanone] |
